Experimental data from US20240083839A1, “COMPOSITIONS AND METHODS FOR TREATING NEURODEGENERATIVE DISEASES AND DISORDERS” (The Regents of the University of California, priority 2020, published 2024).
“And” between values parts separate entries of the source, which are not always exact repeats. Equal values may be shown once. Where a name gives a salt, the structure may show the parent alone. Read-outs that look alike come from different tables or passages of the source.

Tests used:
[1] = tested on: SirT1 levels in N2a-E4 cells; test: SirT1 levels by AlphaLISA in ApoE4-transfected N2a cells; type: cell-based, murine
Experimental: Prompted by the emerging importance of the associations between ApoE4 and the expression/protein levels of SirT1, high-throughput screening (HTS) of the UCLA compound library was performed using AlphaLISA to detect SirT1 levels in murine neuroblastoma cells stably transfected with ApoE4 (E4-N2a) to identify SirT1 enhancers. […] In the in vivo study, mice were treated orally at 40 mkd (20 mg/kg BID) for 56 days and underwent assessment of cognition in the Novel Object Recognition (NOR) testing paradigm. […] The performance of A03-treated E4-AD mice (FIG. 5A) improved to level of non-transgenic vehicle-treated mice.
Wherever PAMPA is given: unit not given here.

SMILES | SirT1 SOμM [1] | SirT1 SμM [1] | PAMPA (PAMPA) | PAMPA (PAMPA; PAMPA)
C[C@H](N)C(=O)NC(C)(C)Cc1cccc(C(F)(F)F)c1 [MP-39, (S)-2-amino-N-(2-methyl-1-(3-(trifluoromethyl)phenyl)propan-2-yl)propanamide] | A, A (A >20%) | A, A (A >20%) | 1.7 | 
C[C@@H](N)C(=O)NC(C)(C)Cc1cccc(C(F)(F)F)c1 [MP-40, (R)-2-amino-N-(2-methyl-1-(3-(trifluoromethyl)phenyl)propan-2-yl)propanamide] | A, A (A >20%) | A, A (A >20%) | 1.78 | 
C[C@H](N)C(=O)OC(C)(C)Cc1ccc(Cl)cc1 [MP-41, 1-(4-chlorophenyl)-2-methylpropan-2-yl L-alaninate] | A, A (A >20%) | A, A (A >20%) |  | 3.88
C[C@@H](N)C(=O)OC(C)(C)Cc1ccc(Cl)cc1 [MP-42, 1-(4-chlorophenyl)-2-methylpropan-2-yl D-alaninate] | a, a (a <250%) | a, a (a <250%) |  | 3.9
C[C@H](N)C(=O)NC(C)(C)Cc1cc(F)cc(F)c1 [MP-43, (S)-2-amino-N-(1-(3,5-difluorophenyl)-2-methylpropan-2-yl)propanamide] | A, A (A >20%) | A, A (A >20%) | 1.59 | 
C[C@@H](N)C(=O)NC(C)(C)Cc1cc(F)cc(F)c1 [MP-44, (R)-2-amino-N-(1-(3,5-difluorophenyl)-2-methylpropan-2-yl)propanamide] | A (A >20%) | a (a <250%) | 1.57 | 
C[C@H](N)C(=O)NC(C)(C)Cc1ccc(Br)cc1 [MP-47, (S)-2-amino-N-(1-(4-bromophenyl)-2-methylpropan-2-yl)propanamide] | A (A >20%) | B (B >50%) | 1.76 | 
C[C@H](N)C(=O)OC(C)(C)Cc1ccncc1 [MP-48, 2-methyl-1-(pyridin-4-yl)propan-2-yl alaninate] | B (B >50%) | A (A >20%) | 0.4 | 
C#Cc1ccc(CC(C)(C)OC(=O)[C@H](C)N)cc1 [MP-50, 1-(4-ethynylphenyl)-2-methylpropan-2-yl alaninate] | B (B >50%) | A (A >20%) | 3.36 | 
C[C@H](N)C(=O)NC(C)(Cc1ccc(F)cc1)Cc1ccc(F)cc1 [MP-51, (S)-2-amino-N-(1,3-bis(4-fluorophenyl)-2-methylpropan-2-yl)propanamide] | C (C = 100% increase versus control) | A (A >20%) | 2.25 and 2.38 | 
C[C@@H](N)C(=O)NC(C)(Cc1ccc(F)cc1)Cc1ccc(F)cc1 [MP-52, (R)-2-amino-N-(1,3-bis(4-fluorophenyl)-2-methylpropan-2-yl)propanamide] | A, A (A >20%) | A, A (A >20%) | 1 | 
CC(=O)c1ccc(CC(C)(C)NC(=O)[C@H](C)N)cc1 [MP-53, (S)—N-(1-(4-acetylphenyl)-2-methylpropan-2-yl)-2-aminopropanamide] | B (B >50%) | A (A >20%) | 0.49 | 
C[C@H](N)C(=O)Nc1ccc2ccccc2c1 [MP-55, (S)-2-amino-N-(naphthalen-2-yl)propanamide] | B (B >50%) | A (A >20%) | 5.06 | 
C[C@H](N)C(=O)NC1Cc2ccccc2C1 [MP-56, (S)-2-amino-N-(2,3-dihydro-1H-inden-2-yl)propanamide] | C (C = 100% increase versus control) | A (A >20%) | 1.81 | 
C[C@H](N)C(=O)Nc1ccccc1-c1ccc(F)cc1 [MP-57, (S)-2-amino-N-(4′-fluoro-[1,1′-biphenyl]-2-yl)propanamide] | B (B >50%) | A (A >20%) | 1.6(2) | 
C[C@H](N)C(=O)NC(C)(C)Cc1ccc(CC(F)(F)F)cc1 [MP-58, (S)-2-amino-N-(2-methyl-1-(4-(2,2,2-trifluoroethyl)phenyl)propan-2-yl)propanamide] | C (C = 100% increase versus control) | A (A >20%) | 1.28 | 
C#Cc1ccc(CC(C)(C)NC(=O)[C@H](C)N)cc1 [MP-59, (S)-2-amino-N-(1-(4-ethynylphenyl)-2-methylpropan-2-yl)propanamide] | A, A (A >20%) | A, A (A >20%) | 2.49 | 
CC(C)(Cc1ccc(Br)cc1)NC(=O)[C@@H](N)CCC(=O)O [MP-61, (S)-4-amino-5-((1-(4-bromophenyl)-2-methylpropan-2-yl)amino)-5-oxopentanoic acid] | B (B >50%) | A (A >20%) | 0.29 | 
C#CC[C@H](N)C(=O)NC(C)(C)Cc1ccc(Br)cc1 [MP-62, (S)-2-amino-N-(1-(4-bromophenyl)-2-methylpropan-2-yl)pent-4-ynamide] | B (B >50%) | A (A >20%) | 1.67 | 
COC(=O)N[C@H]1Cc2ccccc2CNC1=O [MP-70] | A, A (A >20%) | A, A (A >20%) | 0.59 | 
O=C1NCN[C@H]1Cc1ccc(Cl)cc1 [MP-72, (S)-5-(4-chlorobenzyl)imidazolidin-4-one] | A, A (A >20%) | A, A (A >20%) | 11.07(2) | 
O=C(N[C@H]1Cc2ccccc2CNC1=O)OCc1ccccc1 [MP-73, (S)-benzyl (3-oxo-2,3,4,5-tetrahydro-1H-benzo[c]azepin-4-yl)carbamate] | a, a (a <250%) | a, a (a <250%) | 0.68 | 
O=C(N[C@H]1Cc2ccccc2CNC1=O)OCC1c2ccccc2-c2ccccc21 [MP-74, (S)-(9H-fluoren-9-yl)methyl (3-oxo-2,3,4,5-tetrahydro-1H-benzo[c]azepin-4-yl)carbamate] | a, a (a <250%) | a, a (a <250%) | 1.55 | 
CC(N)C(=O)OC(C)(C)Cc1ccc(C(F)(F)F)cc1.Cl (stereo not drawn) [MP-76, 2-methyl-1-(4-(trifluoromethyl)phenyl)propan-2-yl 2-aminopropanoate hydrochloride] | A, A (A >20%) | A, A (A >20%) | 2.71 | 
C[C@H](NC(=O)OC(C)(C)C)C(=O)NC(C)(C)Cc1ccc(C(F)(F)F)cc1 [MP-77, (S)-tert-butyl (1-((2-methyl-1-(4-(trifluoromethyl)phenyl)propan-2-yl)amino)-1-oxopropan-2-yl)carbamate] | a, a (a <250%) | a, a (a <250%) | 1.61 | 
C[C@H](N)C(=O)NC(C)(C)Cc1ccc(C(F)(F)F)cc1 [MP-78, (S)-2-amino-N-(2-methyl-1-(4-(trifluoromethyl)phenyl)propan-2-yl)propanamide hydrochloride] | B (B >50%) | A (A >20%) | 1.93 | 
CC(C)(N)C(=O)NCCc1ccc(Cl)cc1 [MP-79, 2-amino-N-(4-chlorophenethyl)-2-methylpropanamide] | B (B >50%) | A (A >20%) | 1.74 | 
